Entries after “also recorded” stand apart in the source; their conditions may differ.
What was measured:
Format in all cases: cell-based, human
[1] = tested on: RS4;11 lymphoblast cells; assay: Cell viability assay (Promega MTS), dark or pulsed irradiation; settings: 72 h; for EC50: Homo sapiens
Description: Optical control of BRD2-4 with PHOTACs. To assess the biological activity of the PHOTACs, their effect on the viability of RS4;11 lymphoblast cells was tested. Cells were treated in a 96-well plate with increasing concentrations of PHOTACs and were either irradiated with 390 nm light pulses (100 ms every 10 s) for 72 h or incubated with the compound in the dark. Subsequently, cell viability assays (Promega MTS) were performed, as previously described.
Cell culture. The human acute lymphoblastic leukemia RS4;11 (ATCC® CRL-1873™) cell line was purchased from the American Type Culture Collection and cultured in RPMI1640 medium (Gibco) with 10% fetal bovine serum (FBS) and 1% penicillin/streptomycin (PS) in a humidified incubator at 37° C. with 5% CO2 in air. Cells were divided every 2-3 days and the concentration was maintained between 1×10^5 and 1×10^6 cells/mL. For the experiments compounds were serially diluted in RPMI160 without the dye phenol red (Gibco) to reduce the influence of the dye by absorption. Azobenzene stocks and dilutions were strictly kept in the dark and prepared under red light conditions.
Colorimetric MTT Assays. The activity of dehydrogenase enzymes in metabolically active cells, as a quantitative measurement for cytotoxicity and proliferation, was determined by colorimetric measurement of the reduction of [3-(4,5-dimethylthiazol-2-yl)-5-(3-carboxymethoxyphenyl)-2-(4-sulfophenyl)-2H-tetrazolium (MTS) to formazan. The absorbance of formazan at 490 nm was measured on a FLUOstar Omega microplate reader (BMG Labtech).
Cells were treated with different concentrations, ranging from 10 μM to 1 nM, of our compounds and incubated on a 96-well plate for 72 h. They were placed in light-proof boxes and exposed to the lighting conditions specified in the experiment for 72 h. Next, 10 μL of Promega CellTiter 96® AQueous One Solution Reagent was added to each well and incubated for further 4-7 hours. The absorbance at 490 nm was then recorded with a 96-well plate reader.
LED illumination. For illumination of the cells we used the cell disco system as previously described in the literature^[25]. 390 nm 5 mm LEDs were purchased from Roithner Lasertechnik. Cells were preirradiated for 1 min at 390 nm, followed by 100 ms pulses every 10 s in 96- or 6-well plates.

[2] = tested on: c-MYC; assay: Immunoblot of c-MYC levels in RS4;11 cells
Description: Photoactivatable degraders and inhibitors of BRD4, c-MYC levels were also affected.
The slight effect on c-MYC can be explained by inhibition of BRD4 with the (+)-JQ1 derivative PHOTAC-I-3 in the absence of targeted degradation.
Western Immunoblot Analysis. Rabbit monoclonal Antibodies for BRD4 (#13440), β-Actin (#4970) c-Myc (#5605) and Anti-rabbit IgG, HRP-linked Antibody (#7074) were purchased from Cell Signalling Technologies.
Cells were incubated with different concentrations of selected compounds. They were placed in a light-proof box and preirradiated for 1 min at 390 nm followed by 100 ms pulses every 10 s or were kept in the dark for 4 h.
Cultured cells were collected by centrifugation and washed twice with cold PBS. The supernatant was removed and each cell pellet was lysed in 100 μL NP40-Cell-Lysis Buffer+0.1% SDS+1 mM PMSF+ protease inhibitor cocktail (Sigma Aldrich) for 30 min on ice, with vortexing at 10-minute intervals. Afterwards, cells were centrifuged at 13.000 rpm for 10 min at 4° C. Samples were stored on ice and the supernatant was collected for protein concentration determination using a Thermofisher Scientific Pierce™ Coomassie Plus (Bradford) Assay Kit.
The samples were diluted each with 5 μL Laemmli sample buffer Invitrogen (NuPAGE LDS Sample Buffer 4×) and 1 μL DTT, heated at 95° C. for 5 min. […]

[3] = tested on: PARP-1; assay: Immunoblot of PARP-1 cleavage in RS4;11 cells; settings: 1 μM, sustained 390 nm pulse irradiation
Description: FIG. 5 depicts optical control of BRD2-4 levels. A) Immunoblot analysis after treatment of RS4;11 cells with PHOTAC-I-3 for 4 h at different concentrations. Cells were either irradiated with 100 ms pulses of 390 nm light every 10 s (left) or kept in the dark (right). B) Time course of BRD2-4 degradation, c-MYC levels and PARP1 cleavage assayed by immunoblotting. RS4;11 cells were treated with PHOTAC-I-3 (1 μM) and collected at the indicated time points. PHOTAC-I-3 has no effect on BRD2-4 levels in the dark over several hours. […] D) Color-dosing: Wavelength dependence of BRD2/4 degradation promoted by 300 nM PHOTAC-I-3. E) Immunoblot analysis after treatment of RS4;11 cells with PHOTAC-I-3 and combinations with lenalidomide or (+)-JQ1 for 4 h to confirm a cereblon-based mechanism. Cells were either irradiated with 100 ms pulses of 390 nm light every 10 s (left) or kept in the dark (right). F) Optical degradation of BRD4 with the thalidomide derivative PHOTAC-I-10. Immunoblot analysis of RS4;11 cells after treatment with PHOTAC-I-10 for 4 h at different concentrations which were either irradiated with 100 ms pulses of 390 nm light every 10 s (left) or kept in the dark (right). […] The slight effect on c-MYC can be explained by inhibition of BRD4 with the (+)-JQ1 derivative PHOTAC-I-3 in the absence of targeted degradation.

Q: With COc1cc(/N=N/c2cccc3c2CN(C2CCC(=O)NC2=O)C3=O)cc(OC)c1OCC(=O)NCCCCNC(=O)C[C@@H]1N=C(c2ccc(Cl)cc2)c2c(sc(C)c2C)-n2c(C)nnc21 (stereo partly drawn) [PHOTAC-I-3, 2-((S)-4-(4-chlorophenyl)-2,3,9-trimethyl-6H-thieno[3,2-f][1,2,4]triazolo[4,3-a][1,4]diazepin-6-yl)-N-(4-(2-(4-((E)-(2-(2,6-dioxopiperidin-3-yl)-1-oxoisoindolin-4-yl)diazenyl)-2,6-dimethoxyphenoxy)acetamido)butyl)acetamide] as the compound, how does the “EC50 difference dark vs 390 nM” value [1] read?
A: The value was 7.1 fold.

Q: What about the “light dependence of activity in viability assay” value ([1]; dark vs pulsed 390 nm irradiation) of the same compound?
A: The value was “largest difference between light and dark activity”.

Q: What about the EC50 ([1]; RS4-11, light or radiation study, irradiated with 390 nm light pulses (100 ms every 10 s)) of the same compound?
A: The EC50 was 88.5 nM.

Q: What about the EC50 ([1]; RS4-11, in the dark) of the same compound?
A: Its EC50 is 631 nM.

Q: What about the c-MYC downregulation ([2]; 390 nm pulse irradiation) of the same compound?
A: Its c-MYC downregulation is “more pronounced when cells were pulse-irradiated; also recorded: c-MYC downregulation over 24 hours”.

Q: What about the c-MYC levels ([2]; in the dark) of the same compound?
A: Its c-MYC levels is “relatively little effect on c-MYC levels”.

Q: And the “PARP-1 cleavage (indicator of apoptosis)” value [3]?
A: The value was “increasing cleavage of PARP-1”.
